{"source": "patent US8802597B2", "about": "“Herbicidal pyrimidines” (E I du Pont de Nemours and Company, priority 2003, dated 2014)", "assay_in_all_cases": "Test C pre/postemergence", "format_in_all_cases": "in vivo", "key": {"[1]": {"test_system": "common ragweed (Ambrosia elatior)", "conditions": "Ambrosia artemisiifolia, pre-emergence, Preemergence, read-out: Plant response rating, Ragweed", "procedure,_shortened": "(§1)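 Greenhouse herbicide screen, visual readout. Compound in solvent/surfactant applied preemergence at planting or postemergence to 1- to 4-leaf plants; assessed at 12–14 days on a 0–100 control scale.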"}, "[2]": {"test_system": "kochia (Kochia scoparia)", "conditions": "Bassia scoparia, pre-emergence, Preemergence, read-out: Plant response rating, Kochia", "procedure,_shortened": "as §1"}, "[3]": {"test_system": "eastern black nightshade (Solanum ptycanthum)", "conditions": "Solanum, pre-emergence, Preemergence, read-out: Plant response rating, Nightshade", "procedure,_shortened": "as §1"}, "[4]": {"test_system": "common (oilseed) sunflower (Helianthus annuus)", "conditions": "Helianthus annuus, pre-emergence, Preemergence, read-out: Plant response rating, Sunflower", "procedure,_shortened": "as §1"}, "[5]": {"test_system": "yellow nutsedge (Cyperus esculentus)", "conditions": "Cyperus, pre-emergence, Preemergence, read-out: Plant response rating, Nutsedge, Yellow", "procedure,_shortened": "as §1"}, "[6]": {"test_system": "giant foxtail (Setaria faberii)", "conditions": "Setaria faberi, pre-emergence, Preemergence, read-out: Plant response rating, Foxtail, Giant", "procedure,_shortened": "as §1"}, "[7]": {"test_system": "cocklebur (Xanthium strumarium)", "conditions": "Xanthium strumarium, pre-emergence, Preemergence, read-out: Plant response rating, Cocklebur", "procedure,_shortened": "as §1"}, "[8]": {"test_system": "pigweed (Amaranthus retroflexus)", "conditions": "Amaranthus retroflexus, pre-emergence, Preemergence, read-out: Plant response rating, Pigweed", "procedure,_shortened": "as §1"}, "[9]": {"test_system": "velvetleaf (Abutilon theophrasti)", "conditions": "Abutilon theophrasti, pre-emergence, Preemergence, read-out: Plant response rating, Velvetleaf", "procedure,_shortened": "as §1"}, "[10]": {"test_system": "woolly cupgrass (Eriochloa villosa)", "conditions": "Eriochloa villosa, pre-emergence, Preemergence, read-out: Plant response rating, Cupgrass, Woolly", "procedure,_shortened": "as §1"}, "[11]": {"test_system": "morningglory (Ipomoea coccinea)", "conditions": "Ipomoea, pre-emergence, Preemergence, read-out: Plant response rating, Morningglory", "procedure,_shortened": "as §1"}, "[12]": {"conditions": "62 g ai/ha, scale 0 to 100, 0 no effect, 100 complete control"}}}
{"smiles": "Nc1nc(C2CC2)nc(C=O)c1Br", "note": "[Compound 26]", "values": [{"measurement": "pest or weed control at 62 g/ha", "setting": "[1]; [12]", "result": 0, "unit": "%"}, {"measurement": "pest or weed control at 125 g/ha", "setting": "[1]; 125 g ai/ha, scale 0 to 100", "result": 10, "unit": "%"}, {"measurement": "pest or weed control at 250 g/ha", "setting": "[1]; 250 g ai/ha, scale 0 to 100", "result": 85, "unit": "%"}, {"measurement": "pest or weed control at 500 g/ha", "setting": "[1]; 500 g ai/ha, scale 0 to 100", "result": 90, "unit": "%"}, {"measurement": "pest or weed control at 62 g/ha", "setting": "[2]; [12]", "result": 0, "unit": "%"}, {"measurement": "pest or weed control at 500 g/ha", "setting": "[2]; 500 g ai/ha, scale 0 to 100", "result": 50, "unit": "%"}, {"measurement": "pest or weed control at 62 g/ha", "setting": "[3]; [12]", "result": 10, "unit": "%"}, {"measurement": "pest or weed control at 125 g/ha", "setting": "[3]; 125 g ai/ha, scale 0 to 100", "result": 100, "unit": "%"}, {"measurement": "pest or weed control at 250 g/ha", "setting": "[3]; 250 g ai/ha, scale 0 to 100", "result": 100, "unit": "%"}, {"measurement": "pest or weed control at 500 g/ha", "setting": "[3]; 500 g ai/ha, scale 0 to 100", "result": 100, "unit": "%"}, {"measurement": "pest or weed control at 62 g/ha", "setting": "[4]; [12]", "result": 0, "unit": "%"}, {"measurement": "pest or weed control at 125 g/ha", "setting": "[4]; 125 g ai/ha, scale 0 to 100", "result": 20, "unit": "%"}, {"measurement": "pest or weed control at 250 g/ha", "setting": "[4]; 250 g ai/ha, scale 0 to 100", "result": 70, "unit": "%"}, {"measurement": "pest or weed control at 500 g/ha", "setting": "[4]; 500 g ai/ha, scale 0 to 100", "result": 90, "unit": "%"}, {"measurement": "pest or weed control at 62 g/ha", "setting": "[5]; [12]", "result": 0, "unit": "%"}, {"measurement": "pest or weed control at 125 g/ha", "setting": "[5]; 125 g ai/ha, scale 0 to 100", "result": 0, "unit": "%"}, {"measurement": "pest or weed control at 250 g/ha", "setting": "[5]; 250 g ai/ha, scale 0 to 100", "result": 0, "unit": "%"}, {"measurement": "pest or weed control at 500 g/ha", "setting": "[5]; 500 g ai/ha, scale 0 to 100", "result": 0, "unit": "%"}, {"measurement": "pest or weed control at 62 g/ha", "setting": "[6]; [12]", "result": 0, "unit": "%"}, {"measurement": "pest or weed control at 125 g/ha", "setting": "[6]; 125 g ai/ha, scale 0 to 100", "result": 0, "unit": "%"}, {"measurement": "pest or weed control at 250 g/ha", "setting": "[6]; 250 g ai/ha, scale 0 to 100", "result": 0, "unit": "%"}, {"measurement": "pest or weed control at 500 g/ha", "setting": "[6]; 500 g ai/ha, scale 0 to 100", "result": 10, "unit": "%"}, {"measurement": "pest or weed control at 62 g/ha", "setting": "[7]; [12]", "result": 70, "unit": "%"}, {"measurement": "pest or weed control at 125 g/ha", "setting": "[7]; 125 g ai/ha, scale 0 to 100", "result": 70, "unit": "%"}, {"measurement": "pest or weed control at 250 g/ha", "setting": "[7]; 250 g ai/ha, scale 0 to 100", "result": 90, "unit": "%"}, {"measurement": "pest or weed control at 500 g/ha", "setting": "[7]; 500 g ai/ha, scale 0 to 100", "result": 95, "unit": "%"}, {"measurement": "pest or weed control at 62 g/ha", "setting": "[8]; [12]", "result": 30, "unit": "%"}, {"measurement": "pest or weed control at 125 g/ha", "setting": "[8]; 125 g ai/ha, scale 0 to 100", "result": 100, "unit": "%"}, {"measurement": "pest or weed control at 250 g/ha", "setting": "[8]; 250 g ai/ha, scale 0 to 100", "result": 100, "unit": "%"}, {"measurement": "pest or weed control at 500 g/ha", "setting": "[8]; 500 g ai/ha, scale 0 to 100", "result": 100, "unit": "%"}, {"measurement": "pest or weed control at 62 g/ha", "setting": "[9]; [12]", "result": 0, "unit": "%"}, {"measurement": "pest or weed control at 125 g/ha", "setting": "[9]; 125 g ai/ha, scale 0 to 100", "result": 10, "unit": "%"}, {"measurement": "pest or weed control at 250 g/ha", "setting": "[9]; 250 g ai/ha, scale 0 to 100", "result": 90, "unit": "%"}, {"measurement": "pest or weed control at 500 g/ha", "setting": "[9]; 500 g ai/ha, scale 0 to 100", "result": 90, "unit": "%"}, {"measurement": "pest or weed control at 62 g/ha", "setting": "[10]; [12]", "result": 0, "unit": "%"}, {"measurement": "pest or weed control at 125 g/ha", "setting": "[10]; 125 g ai/ha, scale 0 to 100", "result": 0, "unit": "%"}, {"measurement": "pest or weed control at 250 g/ha", "setting": "[10]; 250 g ai/ha, scale 0 to 100", "result": 0, "unit": "%"}, {"measurement": "pest or weed control at 500 g/ha", "setting": "[10]; 500 g ai/ha, scale 0 to 100", "result": 0, "unit": "%"}, {"measurement": "pest or weed control at 62 g/ha", "setting": "[11]; [12]", "result": 0, "unit": "%"}, {"measurement": "pest or weed control at 125 g/ha", "setting": "[11]; 125 g ai/ha, scale 0 to 100", "result": 5, "unit": "%"}, {"measurement": "pest or weed control at 250 g/ha", "setting": "[11]; 250 g ai/ha, scale 0 to 100", "result": 85, "unit": "%"}, {"measurement": "pest or weed control at 500 g/ha", "setting": "[11]; 500 g ai/ha, scale 0 to 100", "result": 90, "unit": "%"}]}
